From PubChem BioAssay AID488878 (Sanford-Burnham Center for Chemical Genomics, 2010)
The source made the active and inactive calls. No rule for the calls is given here.

Molecular target: Alkaline phosphatase, placental type (Homo sapiens) (UniProt P05187)
Assay: PLAP enzyme activators, dose response, mouse IAP activator project, biochemical, uHTS hits (AID 488878)
Conditions: purified human PLAP enzyme activity

| Compound | EC50 |
| --- | --- |
| CCN1/C(=C/C=C/c2oc3ccc(-c4ccccc4)cc3[n+]2CC)Oc2ccc(-c3ccccc3)cc21 | 24.5 µM |
| O=C1/C(=C/C=C/c2ccco2)SC(=S)N1NS(=O)(=O)c1ccccc1 | > 100 µM (inactive) |
| O=C(O)Cc1ccc(O)c(O)c1 | > 100 µM (inactive) |
| CCn1nc(C)c(CN2CCC(C(=O)Nc3cccc(-c4cccc(F)c4)c3)CC2)c1C | 65.1 µM |
| S=C(NCc1ccccc1)NC1CCSc2ccccc21 (configuration not stated) | > 100 µM (inactive) |
| O=C(N/N=C/c1ccc([N+](=O)[O-])o1)c1sc2ccccc2c1Cl | > 100 µM (inactive) |
| O=C(CCO)c1ccc(O)cc1 | 18.9 µM |
| NS(=O)(=O)c1ccc(NC(=S)NC(=O)/C=C/c2ccco2)cc1 | > 100 µM (inactive) |
| O=C(O)CC(CCc1ccccc1)OC1OC(CO)C(O)C(O)C1O (configuration not stated) | 73 µM |
| CCOC(=O)CN1C(=O)/C(=C2\SC(=S)N(NC(=O)c3cccnc3)C2=O)c2ccccc21 | 35.1 µM |
| O=C(CN1CCN(c2ccccc2F)CC1)c1ccc(O)c(O)c1 | > 100 µM (inactive) |
| Cc1ccc(NC(=O)CCNS(=O)(=O)c2ccc3[nH]c(=O)oc3c2)c(Cl)c1 | 26.3 µM |
| O=C(COC(=O)c1ccc(Br)o1)Nc1ncc([N+](=O)[O-])s1 | 60.5 µM |
| Cc1cc(C)c(S(=O)(=O)Nc2ccc(O)c(Sc3ncn[nH]3)c2)cc1C | 55 µM |
| COc1cccc(CNC(=O)CCNS(=O)(=O)c2ccc3[nH]c(=O)oc3c2)c1 | > 100 µM (inactive) |
| CC(C(=O)Nc1ccc(C(=O)O)c(O)c1)N1C(=O)/C(=C\c2ccco2)SC1=S (configuration not stated) | 76.8 µM |
| C[N+](C)(C)C(Cc1ccccc1)C(=O)[O-] (configuration not stated) | 59.7 µM |
| O=C1/C(=C/C=C/c2ccco2)SC(=S)N1c1ccc(O)cc1 | 61.8 µM |
| O=c1cc(-c2ccc(O)cc2)oc2c(O)c(O)c(O)c(O)c12 | 59.6 µM |
| O=C(CCCN1C(=O)/C(=C\c2ccco2)SC1=S)Nc1ccc(O)cc1C(=O)O | 44.7 µM |
| Oc1ccc(/C=N/Nc2cc(N3CCCC3)nc(N3CCCC3)n2)cc1O | > 100 µM (inactive) |
| O=c1[nH]c(/C=C\c2ccc(O)c(O)c2)nc(O)c1[N+](=O)[O-] | > 100 µM (inactive) |
| NS(=O)(=O)c1ccc(-c2ccc(/C=C3\SC(=S)N(C4CCS(=O)(=O)C4)C3=O)o2)cc1 (configuration not stated) | 17.6 µM |

| Compound | EC50 |
| --- | --- |
| CC(C)c1ccc(NC(=O)NC2CCN(CC(=O)Nc3cccc4ccccc34)CC2)cc1 | 55.9 µM |
| COc1ccc(N=C2SC(C(N)=O)CC(=O)N2CCc2ccc(OC)c(OC)c2)cc1 (configuration not stated) | 26.1 µM |
| Cc1cc(/C=C2\SC(=S)NC2=O)c(C)[nH]1 | 61.1 µM |
| COc1cc(/C=C(\C#N)C(=O)c2ccc(O)c(O)c2)cc(I)c1O | > 100 µM (inactive) |
| CSC1=NSC2=NC(=O)/C(=C/c3coc4ccc(O)cc4c3=O)C(=N)N12 | 27.2 µM |
| O=C(O)CC(C(=O)O)N1C(=O)/C(=C/c2ccc(-c3nc4ccccc4s3)o2)SC1=S (configuration not stated) | 60.8 µM |
| N#C/C(=C\c1ccc(O)c(O)c1)C(=O)c1ccc(O)c(O)c1 | 8.03 µM |
| N#Cc1cccc(NC(=O)CCNS(=O)(=O)c2ccc3[nH]c(=O)oc3c2)c1 | 89.7 µM |
| O=C(CN1C(=O)/C(=C/c2ccco2)SC1=S)Nc1ccc(C(=O)O)c(O)c1 | > 100 µM (inactive) |
| CCOc1cc(/C=C2\CCC/C(=C\c3cc(Cl)c(O)c(OCC)c3)C2=O)cc(Cl)c1O | > 100 µM (inactive) |
| COc1ccc(OC)c(S(=O)(=O)Nc2ccc(O)c(Sc3ncn[nH]3)c2)c1 | 57.5 µM |
| Oc1cc(O)c2c(c1)O[C@H](c1ccc(O)c(O)c1)[C@H](O)C2 | 51.3 µM |
| CN(CC(=O)Nc1cccc(Cl)c1)S(=O)(=O)c1ccc2[nH]c(=O)oc2c1 | > 100 µM (inactive) |
| O=c1oc2cc(O)ccc2s1 | 12 µM |
| COc1ccc(S(=O)(=O)Nc2ccc(O)c(Sc3ncn[nH]3)c2)cc1 | 68.6 µM |
| Cc1ccc(C)c(NC(=O)CCNS(=O)(=O)c2ccc3[nH]c(=O)oc3c2)c1 | > 100 µM (inactive) |
| CC1(C(=O)NNC(=O)c2ccc(=O)oc2)CC1Br (configuration not stated) | 57.9 µM |
| Cc1ccc(CN2C3CCCC2CC(NC(=S)NCc2ccccc2)C3)cc1 (configuration not stated) | > 100 µM (inactive) |
| O=C(N/N=C/c1ccc(O)c(O)c1)N/N=C/c1ccc(O)c(O)c1 | 29.6 µM |
| COc1cc(OC)c(NC(=O)CN(C)S(=O)(=O)c2ccc3[nH]c(=O)oc3c2)cc1Cl | 69.8 µM |
| Cc1ccc(/C=C2/SC(=O)NC2=S)o1 | 55.9 µM |
| O=C(/C=C/c1ccco1)NC(=S)Nc1cccc(C(=O)O)c1 | 46.8 µM |
| Oc1cc2c(cc1O)C1c3ccc(O)c(O)c3OCC1(O)C2 (configuration not stated) | 60.4 µM |

| Compound | EC50 |
| --- | --- |
| NS(=O)(=O)c1cc(C(=O)NC2CCSc3ccccc32)ccc1Cl (configuration not stated) | 63.9 µM |
| O=C1NC(=S)NC(=O)C1=Cc1ccc(Br)s1 | 59.6 µM |
| Cc1cc(O)c2c(c1O)C(=O)[C@]13C(=C2O)C(=O)[C@@H]2[C@@H](O)[C@H]1[C@@H]1[C@H](O)[C@H]3C(=O)C3=C(O)c4c(O)cc(C)c(O)c4C(=O)[C@]312 | 66.3 µM |
| COc1ccc(NC(=O)CCNS(=O)(=O)c2ccc3[nH]c(=O)oc3c2)cc1Cl | 54 µM |
| Cc1c(CN2CCC(C(=O)Nc3cccc(-c4cccc(Cl)c4)c3)CC2)cnn1C | 71.6 µM |
| O=C(CSc1n[nH]c(-c2ccccc2)n1)c1ccc(O)c(O)c1 | 65.3 µM |
| CN(C)c1ccc(N=Nc2nc3ccccc3n2C)cc1 | 48.3 µM |
| O=[N+]([O-])c1cc(S(=O)(=O)c2ccc(O)c([N+](=O)[O-])c2)ccc1O | > 100 µM (inactive) |
| O=C(NNC(=S)NC(=O)c1cccs1)c1ccc(O)cc1 | 36.8 µM |
| COc1ccc(OC)c(NC(=O)CCNS(=O)(=O)c2ccc3[nH]c(=O)oc3c2)c1 | > 100 µM (inactive) |
| O=C1CC(c2ccc(O)c(O)c2)Oc2cc(O)cc(O)c21 (configuration not stated) | 60.3 µM |
| C=CCn1c(SCC(=O)c2ccc(O)c(O)c2)nnc1-c1cccc(OC)c1 | 47.8 µM |
| Oc1ccc(C[C@H]2NCCc3cc(O)c(O)cc32)cc1O | > 100 µM (inactive) |
| O=C(CSc1nc2ccccc2o1)N/N=C/c1ccc(O)c(O)c1 | 67.5 µM |
| Cc1ccc(C(=O)Nc2nnc(CC(=O)N/N=C/c3ccc(O)c(O)c3)s2)cc1 | 49.7 µM |
| O=C(CCN1C(=O)/C(=C/c2ccco2)SC1=S)Nc1ccc(C(=O)O)c(O)c1 | 27.6 µM |
| O=C(O)C(c1ccccc1)N1C(=O)/C(=C\c2ccc(O)c(O)c2)SC1=S (configuration not stated) | 62.9 µM |
| O=C(NN1C(=O)/C(=C/C=C/c2ccco2)SC1=S)c1ccncc1 | > 100 µM (inactive) |
| O=S(=O)(c1cc(O)ccc1O)c1cccc2c(S(=O)(=O)c3cc(O)ccc3O)cccc12 | 24.3 µM |
| Cc1ccc(NC(=O)CN(C)S(=O)(=O)c2ccc3[nH]c(=O)oc3c2)c(C)c1 | 64.6 µM |
| Oc1ccc(-c2cn3c(n2)SCC3)cc1O | 55.6 µM |
| Cc1ccc(C)c(S(=O)(=O)Nc2ccc(O)c(Sc3ncn[nH]3)c2)c1 | 13.1 µM |
| CCn1c(CSc2nc3ccccc3s2)nnc1SCC(=O)c1ccc(O)c(O)c1 | 31.7 µM |

| Compound | EC50 |
| --- | --- |
| N#C/C(=C\c1coc2ccc(O)cc2c1=O)C(=O)Nc1nc2ccccc2s1 | 91.1 µM |
| O=C(N/N=C/c1cn(Cc2cccc(F)c2)c2ccccc12)c1cc(O)cc(O)c1 | 53.3 µM |
| COc1cccc(C(C)NC(=O)Nc2cccc(C(F)(F)F)c2)c1 (configuration not stated) | > 100 µM (inactive) |
| O=C(N/N=C/c1ccc(O)cc1O)C(=O)N/N=C/c1ccc(O)cc1O | > 100 µM (inactive) |
| O=C(Nc1ccc(Cl)c(C(F)(F)F)c1)NC1CC2CCCC(C1)N2Cc1ccccc1 (configuration not stated) | > 100 µM (inactive) |
| O=C1NC(=S)NC(=O)C1=Cc1ccc2c(c1)CCN2CCCCl | 57.5 µM |
| Oc1ccc(/C=N/N=C/c2ccc(O)c(O)c2)cc1O | 68 µM |
| CC1CC(=O)c2c(cc3c(-c4c(O)cc(O)c5c(O)c6c(cc45)OC(C)CC6=O)c(O)cc(O)c3c2O)O1 (configuration not stated) | 21.1 µM |
| NNC(=O)c1cc(O)c(O)c(O)c1 | 69.3 µM |
| O=C(Cc1nnc(NC(=O)c2ccccc2)s1)N/N=C\c1ccc(O)c(O)c1 | > 100 µM (inactive) |
| Oc1ccc(-c2csc(Nc3ccccn3)n2)cc1O | 45.8 µM |
| O=C1C=C(O)c2c(O)cc(O)c(O)c2C1=O | > 100 µM (inactive) |
| Cc1ccc(NS(=O)(=O)c2ccc3[nH]c(=O)oc3c2)c(C)c1 | 89 µM |
| CCOC(=O)C(C)Sc1nc2c(c(=O)[nH]c(=O)n2C)n1C/C=C(/C)Cl (configuration not stated) | 84.8 µM |
| Cc1ccc(N2C(=O)/C(=C/c3ccc(CN(CCC#N)S(C)(=O)=O)o3)C(=O)NC2=S)cc1 | 40.7 µM |
| Cc1ccc(NC(=O)CCNS(=O)(=O)c2ccc3[nH]c(=O)oc3c2)cc1F | > 100 µM (inactive) |
| Cc1cc(=O)[nH]c(N/N=C/c2ccc(O)c(O)c2)n1 | 65.7 µM |
| COc1ccccc1CNC(=O)CCNS(=O)(=O)c1ccc2[nH]c(=O)oc2c1 | 49 µM |
| Nc1cc2nc3ccccc3oc-2cc1=O | 57.2 µM |
| CNc1nnc(-c2cc3ccccc3oc2=O)s1 | > 100 µM (inactive) |
| O=C(CN1C(=O)/C(=C/c2ccco2)SC1=S)NC1CCS(=O)(=O)C1 (configuration not stated) | > 100 µM (inactive) |
| CN(CCO)c1ccc(C=NNc2ccc([N+](=O)[O-])cc2S(=O)(=O)Nc2ccccc2C(=O)O)cc1 | 26 µM |
| CCN1/C(=C/c2ccc3cc(C)ccc3[n+]2CC)Sc2ccc3sccc3c21 | 65.3 µM |
